We go through 3 compounds from patent US20090088460A1, “Administration of E-3[3-[N-(4-methoxybenzenesulfonyl)-N-isopropylamino]phenyl]-3-(3-pyridyl)propenohydroxamic acid for preventing and/or treating inflammatory cutaneous pathologies/afflictions” (GALDERMA RESEARCH &DEVELOPMENT, priority 2007, published 2009).

Assay [1] relates to arachidonic acid-induced mouse ear edema. Kind of assay: Arachidonic acid-induced mouse ear edema test, single topical application. In kind it is in vivo. To be noted: Balb/c mice; for reduction of the arachidonic acid-induced ear edema: 20 μl on right ear. As for the experimental part: Evaluation of the Anti-Inflammatory Activity of W3646 (Compound (I)) after Single Topical Application in the Arachidonic Acid-Induced Mouse Ear Edema Test on Balb/c Mice
The arachidonic acid is dissolved in a mixture of THF/methanol at 4%.
The test compound is dissolved in the solution of arachidonic acid (AA) at the final concentration, and tested at concentrations of 0.1, 0.3 and 1%.
20 μl of the solution are applied to the inner face of the right ear.
The thickness of the ear is measured at T+1 h, T+2 h and T+4 h.

For assay [2], the system named is TPA-induced mouse ear edema. As to the kind of experiment: TPA-induced mouse ear edema test, single topical application. Particulars: Balb/c mice; for reduction of the TPA-induced ear edema: T+6 h. It counts as in vivo. The procedure:
Evaluation of the Anti-Inflammatory Activity of W3646 (Compound (I)) after Single Topical Application in the TPA-Induced Mouse Ear Edema Test on Balb/c Mice (TPA=Tetradecanoylphorbol Acetate)
The edema is induced by single application of 20 μl of TPA dissolved in acetone at 0.01%. […]
A positive control, β-methasone valerate (VdB), is also tested.
The thickness of the mouse ear is measured at T+6 h.

On to `COc1ccc2c(c1)c(CC(=O)O)c(C)n2C(=O)c1ccc(Cl)cc1` [Indomethacin, reference compound], for which the “inhibition of the ear edema caused by arachidonic acid” value in assay [1] (indomethacin at 5%, single topical application in 4% arachidonic acid solution, ear thickness measured T+1 h, T+2 h, T+4 h) amounted to 92%.
Take `COc1ccc(S(=O)(=O)N(c2cccc(/C(=C\C(=O)NO)c3cccnc3)c2)C(C)C)cc1` [W3646, E-3-[3-[N-(4-methoxybenzene-sulfonyl)-N-isopropylamino]phenyl]-3-(3-pyridyl)-propenohydroxamic acid]: the “reduction of the arachidonic acid-induced ear edema” value was 16% in assay [1] (0.1% topical in 4% arachidonic acid solution, NS); 49% in assay [1] (0.3% topical in 4% arachidonic acid solution, *); 71% in assay [1] (1% topical in 4% arachidonic acid solution, **). In addition, the “reduction of the TPA-induced ear edema” value worked out at 26% in assay [2] (0.1% in 0.01% TPA solution, NS); 53% in assay [2] (0.3% in 0.01% TPA solution, **); 79% in assay [2] (1% in 0.01% TPA solution, ***).
Take `CCCCC(=O)O[C@]1(C(=O)CO)[C@@H](C)C[C@H]2[C@@H]3CCC4=CC(=O)C=C[C@]4(C)[C@@]3(F)[C@@H](O)C[C@@]21C` [betamethasone valerate, reference compound]: the “reduction in the TPA-induced ear edema” value in assay [2] (0.01% diluted in 0.01% TPA solution, ear thickness at T+6 h, ***) is reported as 93%.
